Reference: patent US20220033407A1, “N-(pyridin-2-ylsulfonyl)cyclopropanecarboxamide Derivatives and their Use in the Treatment of Disease” (NOVARTIS AG, priority 2018, published 2022)

Target: T1, delF508-CFTR-HRP (Homo sapiens, UniProt P13569, DEL508-508)
T1 construct: expressed in transfected cells
Experiment: Measurement of delF508-CFTR-HRP surface expression in CFBE41o- cells (HRP luminescence);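 on DelF508-CFTR-HRP Amax %: percent efficacy relative to a reference CFTR corrector compound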
Type: cell-based
Conditions: for Emax: CFBE41o-, read-out: DelF508-CFTR-HRP Amax %; for EC50: mean of at least two replicates
Description: Measurement of delF508-CFTR-HRP Surface Expression in CFBE41o-Cells
This assay quantifies the cell surface expressions of the mutant CFTR channel using an extracellular HRP tag.
A cellular assay was developed to measure surface expression of horseradish peroxidase (HRP) tagged delF508-CFTR in the human bronchial epithelial immortalized CFBE41o-cell line (Phuan, P. W., et al, (2014) Molecular Pharmacology 86:42-51). Specifically, the HRP sequence was inserted into the fourth extracellular loop of delF508-CFTR and stably expressed in CFBE41o-cells. Cells were seeded in 384 well plate at a density of 5000 cells/well and incubated at 37° C. for 12 to 24 hours in medium (Gibco MEM #11095, 10% FBS, 10 mM HEPES, […], 200 μg/mL G418, 3 μg/mL Puromycin). The delF508-CFTR-HRP expression was induced with 500 ng/mL doxycycline (Sigma D-9891, dissolved in H2O and sterile filtered) in medium and the cells were incubated at 37° C. for 48 h. Old medium was removed and fresh medium was added containing 500 ng/mL doxycycline and unknown test compound at required test concentration in DMSO, not exceeding 0.5% final DMSO concentration. The highest concentration tested was 10 μM with a 10-point concentration response curve using a 3-fold dilution. After addition of compounds, the cells were incubated for 24 h at 37° C. On the final day, cells were washed four times in PBS containing 1 mM MgCl2 and 0.1 mM CaCl2. HRP-Substrate (SuperSignal ELISA Pico, Fisher #37069) 20 μl/well was added and the luminescence signal was determined (Viewlux, Perkin Elmer). Light was emitted upon addition of exogenous HRP-Substrate only when delF508-CFTR-HRP reached the cell surface and the HRP tag was accessible to the HRP-Substrate (note: HRP-Substrate cannot cross the lipid bilayer to reach delF508-CFTR-HRP misfolded within the cell).
The median activity for the lowest concentration of the compounds on each assay plate was calculated and this value was used to normalize the signal for each well on the respective plate. Three replicates at each concentrations for every compound were run to determine one EC50. The median value was determined and used to calculate compound activities as described below. Effective half maximal values (EC50) were calculated for each compound by performing logistic regression on measured dose-response data points using the equation: […]
where “Y” is the observed activity, “Bottom” is the lowest observed value, “Top” is the highest observed value, and the “Hill coefficient” gives the largest absolute value of the slope. The curve fitting is carried out by a curve fitting program implemented at GNF using Matlab (Mathworks). The dose response curves also were used to calculate Fold Change (FC) using the equation: […]
Compound efficacy relative to the reference compound 3-(6-(1-(2,2-difluorobenzo[d][1,3]dioxol-5-yl)cyclopropane-1-carboxamido)-3-methylpyridin-2-yl)benzoic acid was determined using the following formula: […]

T1 sequence (P13569 with tags, fused parts or gaps DEL508-508): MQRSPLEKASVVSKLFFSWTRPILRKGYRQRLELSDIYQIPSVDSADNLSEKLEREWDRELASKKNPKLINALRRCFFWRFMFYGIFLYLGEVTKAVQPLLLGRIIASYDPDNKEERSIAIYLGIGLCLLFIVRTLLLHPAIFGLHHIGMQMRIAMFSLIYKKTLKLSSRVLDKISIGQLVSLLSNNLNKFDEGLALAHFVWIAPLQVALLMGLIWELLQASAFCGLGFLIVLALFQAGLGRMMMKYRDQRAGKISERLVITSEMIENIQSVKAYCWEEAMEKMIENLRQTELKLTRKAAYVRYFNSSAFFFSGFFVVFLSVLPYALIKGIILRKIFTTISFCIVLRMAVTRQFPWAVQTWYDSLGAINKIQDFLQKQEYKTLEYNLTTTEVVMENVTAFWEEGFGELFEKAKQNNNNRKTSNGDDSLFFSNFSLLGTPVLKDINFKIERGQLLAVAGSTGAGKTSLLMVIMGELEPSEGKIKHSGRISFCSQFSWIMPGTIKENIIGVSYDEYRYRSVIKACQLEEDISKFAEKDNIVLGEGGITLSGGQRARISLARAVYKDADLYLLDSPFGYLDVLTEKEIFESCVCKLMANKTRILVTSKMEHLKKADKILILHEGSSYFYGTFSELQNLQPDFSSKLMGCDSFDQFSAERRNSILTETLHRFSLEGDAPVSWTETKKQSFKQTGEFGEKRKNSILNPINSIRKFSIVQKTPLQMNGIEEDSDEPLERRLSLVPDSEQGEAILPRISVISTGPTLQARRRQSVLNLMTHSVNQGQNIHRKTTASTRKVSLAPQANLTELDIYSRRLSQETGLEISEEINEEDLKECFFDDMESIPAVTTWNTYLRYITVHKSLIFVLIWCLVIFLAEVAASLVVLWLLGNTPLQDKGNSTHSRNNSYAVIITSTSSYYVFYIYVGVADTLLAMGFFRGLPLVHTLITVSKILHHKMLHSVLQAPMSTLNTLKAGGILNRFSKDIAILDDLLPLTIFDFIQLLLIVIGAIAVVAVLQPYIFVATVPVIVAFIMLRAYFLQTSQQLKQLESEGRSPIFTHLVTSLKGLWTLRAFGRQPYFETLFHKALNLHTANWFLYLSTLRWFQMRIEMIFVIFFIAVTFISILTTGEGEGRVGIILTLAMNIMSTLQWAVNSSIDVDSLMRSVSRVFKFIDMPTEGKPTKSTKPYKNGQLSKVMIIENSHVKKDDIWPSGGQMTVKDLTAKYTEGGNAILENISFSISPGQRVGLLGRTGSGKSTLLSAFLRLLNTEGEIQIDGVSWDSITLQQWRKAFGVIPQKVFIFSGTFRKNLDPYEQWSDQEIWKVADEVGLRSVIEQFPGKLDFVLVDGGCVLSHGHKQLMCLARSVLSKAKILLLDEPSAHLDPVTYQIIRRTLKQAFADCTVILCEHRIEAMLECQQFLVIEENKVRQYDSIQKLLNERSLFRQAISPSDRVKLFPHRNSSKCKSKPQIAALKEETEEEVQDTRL

Row | SMILES | Emax [%] | EC50 [nM] | DelF508-CFTR-HRP Amax % [%]
1 | O=C(NS(=O)(=O)c1cccc(N2CC[C@H](O)C2)n1)C1(Oc2cc(Cl)ccc2C2CC3(CCC3)C2)CCCC1 [Example 7-20, (S)-1-(5-Chloro-2-(spiro[3.3]heptan-2-yl)phenoxy)-N-((6-(3-hydroxypyrrolidin-1-yl)pyridin-2-yl)sulfonyl)cyclopentane-1-carboxamide] | 280 | 540 | 
2 | CC1(O)CCCN(c2cccc(S(=O)(=O)NC(=O)C3(Oc4cc(Cl)ccc4C4CC5(CCC5)C4)CC3)n2)C1 (single isomer, unassigned) [Example 7-8-2, 1-(5-chloro-2-(spiro[3.3]heptan-2-yl)phenoxy)-N-((6-(3-hydroxy-3-methylpiperidin-1-yl)pyridin-2-yl)sulfonyl)cyclopropanecarboxamide] |  | 1020 | 248.0
3 | Cc1ccc(C2CCCCC2)c(OC2(C(=O)NS(=O)(=O)c3cccc(N4CCC5(CCCC5N)CC4)n3)CC2)c1 (single isomer, unassigned) [Example 2-32-2, N-((6-(1-Amino-8-azaspiro[4.5]decan-8-yl)pyridin-2-yl)sulfonyl)-1-(2-cyclohexyl-5-methylphenoxy)cyclopropanecarboxamide] |  | 1900 | 283
4 | CC1(O)CCCN(c2cccc(S(=O)(=O)NC(=O)C3(Oc4cc(Cl)ccc4C4CC5(CCC5)C4)CC3)n2)C1 (single isomer, unassigned) [Example 7-8-1, 1-(5-chloro-2-(spiro[3.3]heptan-2-yl)phenoxy)-N-((6-(3-hydroxy-3-methylpiperidin-1-yl)pyridin-2-yl)sulfonyl)cyclopropanecarboxamide] |  | 1000 | 535.5
5 | Cc1ccc(C2CCC(C)(C)OC2)c(OC2(C(=O)NS(=O)(=O)c3cccc(N4CCC(O)(C(F)(F)F)CC4)n3)CC2)c1 (single isomer, unassigned) [Example 11-2-1, 1-(2-(6,6-Dimethyltetrahydro-2H-pyran-3-yl)-5-methylphenoxy)-N-((6-(4-hydroxy-4-(trifluoromethyl)piperidin-1-yl)pyridin-2-yl)sulfonyl)cyclopropane-1-carboxamide] |  | 1860 | 473.8
6 | Cc1ccc(C2CCC(C)(C)OC2)c(OC2(C(=O)NS(=O)(=O)c3cccc(N4CC[C@H](O)C4)n3)CC2)c1 (single isomer, unassigned) [Example 4-24-2] |  | 3000 | 249
7 | O=C(NS(=O)(=O)c1cccc(N2CC[C@H](O)C2)n1)C1(Oc2cc(Cl)ccc2-c2ccc(F)c(C(F)(F)F)c2)CC1 [Example 5-7] | 279 | 1380 | 
8 | CC1(O)CCN(c2cccc(S(=O)(=O)NC(=O)C3(Oc4cc(Cl)ccc4C4CC5(CCC5)C4)CCCC3)n2)C1 (single isomer, unassigned) [Example 7-18-2, 1-(5-Chloro-2-(spiro[3.3]heptan-2-yl)phenoxy)-N-((6-(3-hydroxy-3-methylpyrrolidin-1-yl)pyridin-2-yl)sulfonyl)cyclopentane-1-carboxamide] |  | 1670 | 371.9
9 | Cc1ccc(C)c(OC2(C(=O)NS(=O)(=O)c3cccc(NC[C@@H](C)O)n3)CCCC2)c1 [Example 4-4, (R)-1-(2,5-dimethylphenoxy)-N-((6-((2-hydroxypropyl)amino)pyridin-2-yl)sulfonyl)cyclopentane-1-carboxamide] | 84 | 4770 | 
10 | CC1(C)CCN(c2ccc(Cl)cc2OC2(C(=O)NS(=O)(=O)c3cccc(N4CCC(C)(O)C4)n3)CC2)CC1 (single isomer, unassigned) [Example 9-39-2, 1-(5-Chloro-2-(4,4-dimethylpiperidin-1-yl)phenoxy)-N-((6-(3-hydroxy-3-methylpyrrolidin-1-yl)pyridin-2-yl)sulfonyl)cyclopropane-1-carboxamide] |  | 840 | 493.9
11 | Cc1ccc(C2CC2C(F)(F)F)c(OC2(C(=O)NS(=O)(=O)c3cccc(N)n3)CC2)c1 (single isomer, unassigned) [Example 1-3-2, N-((6-aminopyridin-2-yl)sulfonyl)-1-(5-methyl-2-(2-(trifluoromethyl)cyclopropyl)phenoxy)cyclopropane-1-carboxamide] |  | 2990 | 260

Now from value to molecule:

Row | Emax [%] | EC50 [nM] | DelF508-CFTR-HRP Amax % [%] | SMILES
12 | 408 | 1760 |  | O=C(NS(=O)(=O)c1cccc(N2CC[C@H](O)C2)n1)C1(Oc2cc(C(F)(F)F)ccc2N2CC3(CCC3)C2)CC1 [Example 9-25, (S)-1-(2-(2-Azaspiro[3.3]heptan-2-yl)-5-(trifluoromethyl)phenoxy)-N-((6-(3-hydroxypyrrolidin-1-yl)pyridin-2-yl)sulfonyl)cyclopropanecarboxamide]
13 | 152 | 910 |  | CC(C)(C)C1CCN(c2ccc(Cl)cc2OC2(C(=O)NS(=O)(=O)c3cccc(N4CC[C@H](O)C4)n3)CC2)CC1 [Example 9-34, (S)-1-(2-(4-(Tert-butyl)piperidin-1-yl)-5-chlorophenoxy)-N-((6-(3-hydroxypyrrolidin-1-yl)pyridin-2-yl)sulfonyl)cyclopropanecarboxamide]
14 | 789 | 1470 |  | CC(C)[C@H](CO)Nc1cccc(S(=O)(=O)NC(=O)C2(Oc3cc(Cl)ccc3N3CCC(C)(C)CC3)CC2)n1 [Example 9-38, (R)-1-(5-Chloro-2-(4,4-dimethylpiperidin-1-yl)phenoxy)-N-((6-((1-hydroxy-3-methylbutan-2-yl)amino)pyridin-2-yl)sulfonyl)cyclopropane-1-carboxamide]
15 | 857 | 610 |  | CC1(C)CCCN(c2ccc(Cl)cc2OC2(C(=O)NS(=O)(=O)c3cccc(N4CC[C@](C)(O)C4)n3)CC2)C1 [Example 9-27, (S)-1-(5-Chloro-2-(3,3-dimethylpiperidin-1-yl)phenoxy)-N-((6-(3-hydroxy-3-methylpyrrolidin-1-yl)pyridin-2-yl)sulfonyl)cyclopropanecarboxamide]
16 | 590 | 590 |  | CC1(C)CCCN(c2ccc(Cl)cc2OC2(C(=O)NS(=O)(=O)c3cccc(N4CC[C@@](C)(O)C4)n3)CC2)C1 [Example 9-30, (R)-1-(5-Chloro-2-(3,3-dimethylpiperidin-1-yl)phenoxy)-N-((6-(3-hydroxy-3-methylpyrrolidin-1-yl)pyridin-2-yl)sulfonyl)cyclopropanecarboxamide]
17 | 693 | 1510 |  | CC1(C)CCN(c2ccc(Cl)cc2OC2(C(=O)NS(=O)(=O)c3cccc(N4CC5CCC(C4)O5)n3)CC2)CC1 [Example 9-40, N-((6-(8-Oxa-3-azabicyclo[3.2.1]octan-3-yl)pyridin-2-yl)sulfonyl)-1-(5-chloro-2-(4,4-dimethylpiperidin-1-yl)phenoxy)cyclopropane-1-carboxamide]
18 | 12.6 | 80 |  | O=C(NS(=O)(=O)c1cccc(N2CC[C@H](O)C2)n1)C1(Oc2cc(Cl)ccc2N2CCC(O)(c3ccccn3)CC2)CC1 [Example 9-37, (S)-1-(5-Chloro-2-(4-hydroxy-4-(pyridin-2-yl)piperidin-1-yl)phenoxy)-N-((6-(3-hydroxypyrrolidin-1-yl)pyridin-2-yl)sulfonyl)cyclopropanecarboxamide]
19 |  | 1650 |  | O=C(NS(=O)(=O)c1cccc(N2CC[C@H](O)C2)n1)C1(Oc2cc(Cl)ccc2N2CCC3(CC2)CC3)CC1 [Example 9-9, (S)-1-(5-Chloro-2-(6-azaspiro[2.5]octan-6-yl)phenoxy)-N-((6-(3-hydroxypyrrolidin-1-yl)pyridin-2-yl)sulfonyl)cyclopropanecarboxamide]
20 | 388 | 910 |  | O=C(NS(=O)(=O)c1cccc(N2CC[C@@H](O)C2)n1)C1(Oc2cc(Cl)ccc2N2CC3(CCCCC3)C2)CC1 [Example 9-6, (R)-1-(5-Chloro-2-(2-azaspiro[3.5]nonan-2-yl)phenoxy)-N-((6-(3-hydroxypyrrolidin-1-yl)pyridin-2-yl)sulfonyl)cyclopropanecarboxamide]
21 | 691 | 950 |  | O=C(NS(=O)(=O)c1cccc(N2CC[C@@H](O)C2)n1)C1(Oc2cc(Cl)ccc2N2CCC3(CC2)CC3)CC1 [Example 9-29, (R)-1-(5-Chloro-2-(6-azaspiro[2.5]octan-6-yl)phenoxy)-N-((6-(3-hydroxypyrrolidin-1-yl)pyridin-2-yl)sulfonyl)cyclopropanecarboxamide]
